Where two headings read alike, the source gives them in different places.

What all share (format): physicochemical
The nature of series [1]: Hydration study by DVS analysis (hydration-dehydration cycles versus relative humidity). On the procedure:
Melting points (m.p.) of the intermediate detomidine free base and hydrochloride of Sample 5 measured in open capillary corresponded with the published literature and the DSC data and are presented in Table 5. In order to evaluate effect of humidity on different forms of detomidine, a hydration study was performed. Samples of detomidine free base and hydrochloride salt were subjected to DVS analysis. These observations are in accordance with the DVS results shown in FIGS. 5 and 6, for detomidine free base and detomidine HCl, respectively.
During the dehydration cycle, the monohydrate began to lose water at RH˜10% and converted into the anhydrate at RH=0%.
At the same time, the anhydrous form is not stable in atmospheric air and absorbs water at RH=30-50%.

Series [2] in a line: Re-slurry in water: conversion of the solid form without complete dissolution. Conditions: contact with water for 24 hrs, re-slurry at 24° C.
Series [3] in a line: Solid form stability of the vacuum dried anhydrate, hermetically closed or exposed to atmospheric air. As to the method: The same monohydrate dried at elevated temperature (30-40 mbar 90° C.) converted completely into the anhydrous form.
Series [4] is described as follows: Solubility in water (observation on the solid forms).

With `Cc1cccc(Cc2c[nH]cn2)c1C` [Sample 2], the “water level after absorption, cKF” value in series [1] (anhydrous detomidine HCl after hydration) was 7.7%.
For the compound `Cc1cccc(Cc2c[nH]cn2)c1C` [anhydrous form], in series [2], the “form conversion on contact with water” value is “completely converted”. Besides, the “stability in atmospheric air” value in series [1] (atmospheric air) was “not stable”. In series [1] (hydration cycle), the “RH at which the anhydrate absorbs water / transforms completely into the monohydrate” value is reported as 30-50% and the “RH at which the anhydrate did not absorb water” value is on record as under 30%. Also, the “water uptake and form conversion after exposure to atmospheric air” value in series [3] (after exposure to atmospheric air) was “absorbed water and converted to a mixture of anhydrate and monohydrate”. The “water uptake and form conversion, hermetically closed” value in series [3] (vacuum dried, hermetically closed) was “did not absorb water from the atmosphere and did not convert into the monohydrate”.
With `Cc1cccc(Cc2c[nH]cn2)c1C` [detomidine free base, 4-[(2,3-dimethylphenyl)methyl]-1H-imidazole], the hygroscopicity entry in series [1] (DVS, 24.4° C. (FIG. 5)) was “non-hygroscopic”. The water absorbed result in series [1] (at relative humidity (RH)>50%) is recorded as “more than 1%”. The solubility in water entry in series [4] was “insoluble in water”.
`Cc1cccc(Cc2c[nH]cn2)c1C.Cl` [detomidine hydrochloride]: the “reproducibility of anhydrate-monohydrate interconversion” value in series [1] (four cycles of hydration-dehydration) is listed as “good reproducibility”. In addition, the solubility in water result in series [4] (water, hydrochloride formed with aqueous HCl) is “soluble”.
Turning to `Cc1cccc(Cc2c[nH]cn2)c1C` [monohydrate], the “absorption of additional water on increase of humidity” value in series [1] (RH 70% to RH>90%) is “did not lead to absorption of additional water”. Also, in series [1] (dehydration cycle), the “RH at which the monohydrate began to lose water” value is reported as about 10% and the “RH at which the monohydrate converted into the anhydrate” value is on record as 0%.

These data come from US20210323929A1, “Purified Detomidine, Process of Preparing and Methods of Use” (Clexio Biosciences Ltd., priority 2018, published 2021).
